Legend:
neutrophils = experiment: Zymographic detection of metalloproteases; assay type: cell-based; details: neutrophils added on top of collagen matrix
Experimental: Metalloproteinases MMPs) are a family of closely related zinc-containing enzymes whose principal function is thought to be an integral part of generalized tissue remodeling as well as the formation of new blood vessels. Zymography has the advantage that in addition to detecting enzyme activity it can be used to provide information about the molecular weight of an enzyme and so help identify the enzyme. To achieve this dissolved gelatin is incorporated into a polyacrylamide gel, samples are added to the gel, separated by electrophoresis and the gel allowed to incubate for a while to allow the enzymes to degrade the gelatin. When the gels are stained for proteins clear lysis bands are apparent where the metalloproteinases have degraded the gelatin.

[1] = test system: innervated TE cornea constructs; experiment: Substance P release from innervated TE corneas (EIA); assay type: cell-based, chick; details: for SP release versus controls: 1% capsaicin or 50 μM veratridine, P<0.05
Experimental: To elicit a functional response such as SP release, innervated TE cornea constructs were treated with capsaicin or veratridine. Briefly, innervated tissue engineered corneas were treated with a total of 1.5 ml of SHEM containing 8.5% Tween 80 and 1.5% ethanol either alone (control) or with 1) 1% (w/v) capsaicin, or 2) 50 μM veratridine. At 0, 1, 3, 6, 12 and 24 hours post-treatment, culture supernatants were collected, flash frozen in liquid nitrogen and stored at −80° C. Substance P content of the medium was measured using a substance P specific competitive peptide enzyme immunoassay (EIA) kit (Peninsula Laboratories). […] All groups, n 3. *P<0.001 versus control (2-way ANOVA).

HUVEC = experiment: Effect of growth factors and retinyl acetate on angiogenesis in the sclera model; assay type: cell-based, Human
Experimental: The fibrinogen solution (3 mg/ml) was mixed with the thrombin solution (1.75 mg/ml) at a ratio of 1:0.03 v/v in wells of different sizes. Within a minute, enzymatic polymerization of fibrinogen gave fibrin gels under gentle agitation at 37° C. To incorporate endothelial cells in the fibrin matrix and to induce angiogenesis, endothelial cells were firstly seeded on the bottom of gelatin-coated wells at high density to provide a confluent monolayer at 48 hours. […] Fibrin gels were obtained again within a minute. Within 2 weeks of culture at 37° C. with 5% CO2, tube like vessels were generated within the matrix that associated together in order to form cord structures. These were visible by light microscopy and were counted in order to give an indication of vessel numbers. A combinatorial approach was utilized to evaluate what factors are required to achieve the optimal number of blood vessels within this sclera model. The pseudo sclera was generated as per Section 3.1.3. […] The effectiveness of the growth factors in positively affecting angiogenesis was evaluated by counting the number of tubes identified in a dish by brightfield microscopy. […] The effect of RA on angiogenesis was evaluated in the system described above. […] Blood vessel formation was evaluated by counting the number of vessels within a treated dish. […]

[2] = test system: nerve bundles growing into the cornea; experiment: Electrophysiological recording of evoked action potentials in TE corneas; assay type: cell-based, chick; details: 50 mM lidocaine HCl; stimulation of ganglion cell cluster
Text: Direct electrophysiological recording from the corneal epithelium was therefore conducted to confirm that nerve bundles growing into the cornea were able to conduct lidocaine-sensitive action potentials that were evoked by stimulation of the ganglion cell cluster (FIG. 3C, D). Tissue engineered corneas were transferred into an interface recording chamber, perfused with artificial saline containing (in mM): NaCl: 126, KCl: 3.0, MgSO4: 2.0, NaHCO3: 26, NaH2PO4 1.25, CaCl2: 2.0, dextrose: 10, oxygenated with 95% O2/5% CO2 at room temperature. Cathodal stimulation of ganglion cell clusters was done using silver wires pressed lightly against the surface and applying square wave stimulus pulses of 50 μs duration and typically 60-80 V in amplitude. Differential recordings of electrical responses from nerve fibre bundles were recorded with glass micropipettes (≈50 μm tips) filled with 150 mM NaCl. Because of the close proximity of the stimulation to the recording electrodes, a very large stimulus artefact was generated that obscured the very small action potentials (FIG. 3C, the action potential is indicted by the arrow).
To observe action potentials in isolation, evoked responses were recorded before and after addition of 50 mM lidocaine HCl. […]

## formyl-Met-Leu-Phe [FMLP]
neutrophils
  stimulation of neutrophils (MMP-2 and MMP-9 detected): able to stimulate them

## COc1cc(CNC(=O)CCCC/C=C/C(C)C)ccc1O [capsaicin]
[1]; 1% (w/v) capsaicin, 1, 3, 6, 12 and 24 hours, P<0.001
  release of SP versus controls: significantly greater
[1]; 6 hours post-treatment
  SP release versus controls: significant increase
[1]; 24 hours post-treatment
  SP release versus controls: significant increase

## CC(=O)OC/C=C(C)/C=C/C=C(C)/C=C/C1=C(C)CCCC1(C)C [RA, Retinyl acetate]
HUVEC; high levels of RA
  number of blood vessels: decreased
HUVEC; various concentrations of RA
  Blood vessel formation (number of vessels): increases in a dose dependent fashion and is optimal at an intermediate range

## CCN(CC)CC(=O)Nc1c(C)cccc1C [lidocaine]
[2]
  sensitivity of evoked action potentials: lidocaine-sensitive
